Assay results as given in patent publication US20140243374A1, “Novel Sulfonamides” (The Brigham and Women's Hospital, Inc., priority 2011, published 2014).
Several values for one entry are separate records, joined by “and”; a condition that tells them apart may be missing. Identical values can stand only once. Counter-ions that a name gives are not always drawn.

Experiments:
[1] = target: T1, γ-secretase (cleavage of APP, Aβ42) (Homo sapiens, UniProt P49768); experiment: Aβ (1-42) cellular assay (Aβ ELISA, HEK AP-GL-T1 6 cells); format: cell-based; details: for IC50: cellular Aβ42 ELISA, 24 h compound treatment; for inhibition at 1 µM: at 1 μM (concentration in brackets)
T1 construct: endogenous in cells; host or cells: HEK AP-GL-T16 luciferase reporter cells (tetracycline-induced APP substrate)
Description: Aβ (1-42) Cellular Assay.
The following assay was used to determine the extent to which the compounds of interest inhibit the cleavage of APP in vivo. AβELISA is a commercial fluorometric kit from Biosource (Invitrogen 89344). Luciferase reporter HEK AP-GL-T1 6 cells were plated at 50,000 cells/well in 96 well plates in DMEM media containing 10% tetracyclin free […], 250 μg/mL zeocin, 200 μg/mL hygromycin, and 5 μg/mL blasticidin. Compounds were added 24 h after plating and APP processing is induced simultaneously by addition of tetracycline. Following a 24 h compound treatment, […] of conditioned cell media is collected, mixed with ELISA diluent buffer containing 2 mM AEBSF and 12 mM o-phenanthroline, and immediately frozen at −80° C. For the ELISA, the samples were brought to room temperature and spun at 5000 rpm for 5 min. Samples ([…]) are incubated in the ELISA plate with […] detection antibody on a shaker at room temperature for 3 h. Wells were then washed 4 times with wash buffer and 100 mL of secondary antibody are added and incubated at room temperature for 30 min. Wells were again washed 4 times with wash buffer and 100 mL of fluorescent substrate solution are added. After 30 minutes of incubation, fluorescent signals are determine on a Gemini reader at ex 460 nm and em 560 nm. The amount of Aβ levels in each sample was determined from a standard curve generated by known concentrations of Aβ peptide run simultaneously with the samples.

[2] = target: T2, γ-secretase (Notch cleavage activity) (Homo sapiens, UniProt P49768); experiment: Cleaved Notch1 Sandwich ELISA (SUP-T1 cell line); format: cell-based; details: for IC50: SUP-T1 cells, 16 h; for Notch Elisa/Aβ42: ratio Notch Elisa IC50 to Aβ42 IC50
T2 construct: endogenous in cells; host or cells: SUP-T1 cells
Description: Cleaved Notch1 Sandwich ELISA.
This assay was used to determine if the compounds of interest inhibit the Notch cleavage activity of γ-secretase in SUP-T1 cell line, which endogenously expresses a truncated Notch receptor fragment that is a viable gamma-secretase substrate. The base medium for this cell line is ATCC-formulated RPMI-1640 Medium with fetal bovine serum to a final concentration of 10%. Prepare dilution of SUP-T1 cells in complete growth medium to 1.0×10^6 cells/mL, seed 1.5 mL per well of each cell dilution into a 6-well plate. Collect cells treated with serial diluted compounds in DMSO after 16 h, then using equal amount of protein isolated from samples to measure Notch intracellular cleavage by PathScan® Sandwich ELISA Kit (Cell Signaling Tech 7194S).

| IC50 [1] | IC50 [2] | Compound | other results |
| --- | --- | --- | --- |
| 47.6 nM | 1880 nM | O=C(O)c1ccc(CN(C2CCCC(C(F)(F)F)C2)S(=O)(=O)c2ccc(Cl)cc2)cc1 (single isomer, unassigned) [Example 52, 4-((4-Chloro-N-(3-(trifluoromethyl)cyclohexyl)phenylsulfonamido)methyl)benzoic acid] | Notch Elisa/Aβ42 ([2]; listed as 52/1227C): 40 |
| 1190 nM | 34800 nM | O=C(O)c1ccc(CN(C2CCCC(C(F)(F)F)C2)S(=O)(=O)c2ccc(Cl)cc2)cc1 (single isomer, unassigned) [Example 53, 4-((4-Chloro-N-(3-(trifluoromethyl)cyclohexyl)phenylsulfonamido)methyl)benzoic acid] | Notch Elisa/Aβ42 ([2]; listed as 53/1227D): 29 |
|  |  | COC(=O)c1cc(CN(C2CCOCC2)S(=O)(=O)c2ccc(Cl)cc2)ccc1OC [Example 7, Methyl 5-((4-chloro-N-(tetrahydro-2H-pyran-4-yl)phenylsulfonamido)methyl)-2-methoxybenzoate] | inhibition at 1 µM ([1]; read-out: Aβ42 % Inh): 0% |
|  |  | COC(=O)c1ccc(CN(C2CCOCC2)S(=O)(=O)c2ccc(Cl)cc2)cc1 [Example 12, Methyl 4-((4-chloro-N-(tetrahydro-2H-pyran-4-yl)phenylsulfonamido)methyl)-benzoate] | inhibition at 1 µM ([1]; read-out: Aβ42 % Inh): 0% |
| 8.3 nM and 12.8 nM | 667 nM | CC1CCCCC1N(Cc1ccc(C(=O)NCCN2CCCC2)cc1)S(=O)(=O)c1ccc(Cl)cc1 (centres unmarked) [Example 38, 4-((4-Chloro-N-(2-methylcyclohexyl)phenylsulfonamido)methyl)-N-(2-(pyrrolidin-1-yl)ethyl)benzamide] | Notch Elisa/Aβ42 [2]: 64 |
| 40.7 nM and 77.4 nM | 2260 nM | CCN(CCN1CCCC1)C(=O)c1ccc(CN(C2CCCCC2C)S(=O)(=O)c2ccc(Cl)cc2)cc1 (centres unmarked) [Example 39, 4-((4-Chloro-N-(2-methylcyclohexyl)phenylsulfonamido)methyl)-N-ethyl-N-(2-(pyrrolidin-1-yl)ethyl)benzamide] | Notch Elisa/Aβ42 [2]: 38 |
| 5.8 nM and 10.9 nM | 675 nM and 850 nM | CC1CCCCC1N(Cc1ccc(C(=O)NCCN(C)C)cc1)S(=O)(=O)c1ccc(Cl)cc1 (centres unmarked) [Example 41, 4-((4-Chloro-N-(2-methylcyclohexyl)phenylsulfonamido)methyl)-N-(2-(dimethylamino)ethyl)benzamide hydrochloride] | Notch Elisa/Aβ42 [2]: 91 |
| 9.44 nM |  | COC(=O)c1ccc(CN(C2CCCC(C)C2)S(=O)(=O)c2ccc(Cl)cc2)cc1 (centres unmarked) [Example 42, Methyl 4-((4-chloro-N-(3-methylcyclohexyl)phenylsulfonamido)methyl)benzoate] |  |
| 148 nM | 2820 nM and 2730 nM | CC1CCCC(N(Cc2ccc(C(=O)O)cc2)S(=O)(=O)c2ccc(Cl)cc2)C1 (centres unmarked) [Example 43, 4-((4-Chloro-N-(3-methylcyclohexyl)phenylsulfonamido)methyl)benzoic acid] | Notch Elisa/Aβ42 [2]: 19 |
| 6.4 nM and 20 nM | 2980 nM and 2730 nM | CC1CCCCC1N(Cc1ccc(C(=O)O)cc1)S(=O)(=O)c1ccc(Cl)nc1 (centres unmarked) [Example 44, 4-((6-Chloro-N-(2-methylcyclohexyl)pyridine-3-sulfonamido)methyl)benzoic acid] | Notch Elisa/Aβ42 [2]: 220 |
| 7.3 nM |  | COC(=O)c1ccc(CN(C2CCCC(C(F)(F)F)C2)S(=O)(=O)c2ccc(Cl)cc2)cc1 (centres unmarked) [Example 49, Methyl 4-((4-chloro-N-(3-(trifluoromethyl)cyclohexyl)phenylsulfonamido)methyl)benzoate] |  |
| 4.05 nM |  | COC(=O)c1ccc(CN(C2CCCCC2F)S(=O)(=O)c2ccc(Cl)cc2)cc1 (centres unmarked) [Example 56, Methyl 4-((4-chloro-N-(2-fluorocyclohexyl)phenylsulfonamido)methyl)benzoate] |  |
| 4.58 nM and 7 nM | 1550 nM | C[C@H](CO)NC(=O)c1ccc(CN(C2CCCCC2F)S(=O)(=O)c2ccc(Cl)cc2)cc1 (stereo partly drawn) [Example 60, 4-((4-Chloro-N-(2-fluorocyclohexyl)phenylsulfonamido)methyl)-N—((R)-1-hydroxypropan-2-yl)benzamide] | Notch Elisa/Aβ42 [2]: 305 |
| 10.4 nM |  | COC(=O)c1ccc(CN(C2CCCCC2F)S(=O)(=O)c2ccc(Cl)nc2)cc1 (centres unmarked) [Example 61, Methyl 4-((6-chloro-N-(2-fluorocyclohexyl)pyridine-3-sulfonamido)methyl)benzoate] |  |
| 135 nM and 261 nM | 5200 nM | O=C(O)c1ccc(CN(C2CCCCC2F)S(=O)(=O)c2ccc(Cl)nc2)cc1 (centres unmarked) [Example 62, 4-((6-Chloro-N-(2-fluorocyclohexyl)pyridine-3-sulfonamido)methyl)benzoic acid] | Notch Elisa/Aβ42 [2]: 26 |
|  |  | O=C(O)c1ccc(CN(C2CCCC(C(F)(F)F)C2)S(=O)(=O)c2ccc(Cl)nc2)cc1 (centres unmarked) [Example 63, 4-((6-Chloro-N-(3-(trifluoromethyl)cyclohexyl)pyridine-3-sulfonamido)methyl)benzoic acid] | inhibition at 1 µM ([1]; read-out: Aβ42 % Inh): 87% |
| 26.8 nM |  | COC(=O)c1ccc(CN(C2CCCC(C(F)(F)F)C2)S(=O)(=O)c2ccc(Cl)nc2)cc1 (centres unmarked) [Example 70, Methyl 4-((6-chloro-N-(3-(trifluoromethyl)cyclohexyl)pyridine-3-sulfonamido)methyl)benzoate] |  |
| 3620 nM |  | O=C(O)CNC(=O)c1ccc(CN(C2CCCCC2F)S(=O)(=O)c2ccc(Cl)cc2)cc1 (centres unmarked) [Example 79, 2-(4-((4-Chloro-N-(2-fluorocyclohexyl)phenylsulfonamido)methyl)benzamido)acetic acid] |  |
|  |  | CN(C)CCNC(=O)c1ccc(CN(C2CCCCC2F)S(=O)(=O)c2ccc(Cl)nc2)cc1 (centres unmarked) [Example 80, 4-((6-Chloro-N-(2-fluorocyclohexyl)pyridine-3-sulfonamido)methyl)-N-(2-(dimethylamino)ethyl)benzamide hydrochloride] | inhibition at 1 µM ([1]; read-out: Aβ42 % Inh): 65% |
|  |  | O=C(O)c1ccc(CN(C2CCC(F)CC2)S(=O)(=O)c2ccc(Cl)cc2)cc1 (centres unmarked) [Example 82, 4-((4-Chloro-N-(4-fluorocyclohexyl)phenylsulfonamido)methyl)benzoic acid] | inhibition at 30 µM ([1]; at 30 μM (concentration in brackets), read-out: Aβ42 % Inh): 0% |
| 141 nM |  | O=C(O)c1ccc(CN([C@@H]2CCCC[C@H]2F)S(=O)(=O)c2ccc(Cl)cc2)cc1 [Example 84, 4-((4-Chloro-N-((1R,2R)-2-fluorocyclohexyl)phenylsulfonamido)methyl)benzoic acid] |  |
| 103 nM |  | COC[C@H](C)NC(=O)c1ccc(CN(C2CCCCC2F)S(=O)(=O)c2ccc(Cl)cc2)cc1 (stereo partly drawn) [Example 86, 4-((4-Chloro-N-(2-fluorocyclohexyl)phenylsulfonamido)methyl)-N—((S)-1-methoxypropan-2-yl)benzamide] |  |
| 6.91 nM |  | O=C(NCCN1CCCC1)c1ccc(CN(C2CCCCC2F)S(=O)(=O)c2ccc(Cl)cc2)cc1 (centres unmarked) [Example 87, 4-((4-Chloro-N-(2-fluorocyclohexyl)phenylsulfonamido)methyl)-N-(2-(pyrrolidin-1-yl)ethyl)benzamide] |  |
| 7.31 nM |  | COC[C@@H](C)NC(=O)c1ccc(CN(C2CCCCC2F)S(=O)(=O)c2ccc(Cl)cc2)cc1 (stereo partly drawn) [Example 88, 4-((4-Chloro-N-(2-fluorocyclohexyl)phenylsulfonamido)methyl)-N-((R)-1-methoxypropan-2-yl)benzamide] |  |
| 35.4 nM |  | C[C@@H](CO)NC(=O)c1ccc(CN(C2CCCCC2F)S(=O)(=O)c2ccc(Cl)cc2)cc1 (stereo partly drawn) [Example 89, 4-((4-Chloro-N-(2-fluorocyclohexyl)phenylsulfonamido)methyl)-N—((S)-1-hydroxypropan-2-yl)benzamide] |  |
| 29.7 nM |  | Methyl 3-(4-((4-chloro-N-(2-methylcyclohexyl)phenylsulfonamido)methyl)benzamido)propanoate [Example 35] |  |
